The subject of one data set is HIV-1NL4-3. The experiment in a line: HIV-1 infectivity in TZM-bl cells (F-Luc). The data set is classed as cell-based.
Data set [1] concerns Tat-mediated LTR transcription. As to the kind of experiment: Dual-reporter assay, F-Luc (Tat-mediated LTR transcription) in bl-DTR cells. Type of data set: cell-based, HIV-1. Particulars: Human immunodeficiency virus 1, 24 h, read-out: IC50 of F-Luc (Tat). A digest of the protocol:
(§1)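 bl-DTR cells (TZM-bl with Dox-inducible Flag-Tat86 and R-Luc cassettes; 1 × 10^4) were pretreated with twofold compound dilutions, then induced with 50 ng/mL doxycycline. After 24 h, firefly luciferase (Tat-driven LTR) and Renilla luciferase (general expression) were read by dual-luciferase assay.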
On the technique in general: Reporter assays use an easily measured gene product as a stand-in for the process of interest.

A short description of data set [2]: Cell viability of A3.01 cells. The data set is classed as cell-based. Conditions: human. On the procedure:
The p24 level from the cell supernatant was subsequently determined using a p24 […] kit (PerkinElmer). In parallel, the cell viability was determined without viral infection because of the viral cytopathic effect. […] In parallel, cell viability was determined. The data (A and B) are presented as the mean ± SD (n = 3). (C) PBMCs (4 × 10^5) infected with HIV-AD8 at an MOI of 0.1 were treated with 1.5 µM of the compounds or ARVs for 3 days. The levels of p24 and cell viability were subsequently determined. (D) J1.1 cells were cultured with the compounds ([…]) under 50 ng/mL phorbol myristate acetate (PMA) treatment for 2 days. The level of p24 was subsequently determined. (E) J-Lat 6.3 cells were treated with the compounds (1.5 µM) under 1 µg/mL of PMA for 2 days. The GFP-positive cell population was analyzed using flow cytometry. The data are represented as a value relative to the DMSO-treated vehicle (D) and a percent of the GFP^+ cell population (E) as mean ± SD (n = 3).
The inhibitory effects of the compounds on viral replication were determined with some minor modifications, as previously described ([12], [62]). […] PBMCs (4 × 10^5) pre-activated with PHA-M for 3 days were washed with fresh media to remove excess PHA-M and subsequently infected with HIV-1NL4-3 or HIV-1AD8 or PIs-resistant HIV-1 strains as A3.01 infection. After infection, the infectious media were replaced with fresh media supplemented with international 10 units (IU)/mL of IL-2 and the indicated compounds. At 72 h after infection, the inhibitory effect of the compounds on viral replication was determined by measuring the p24 amount, an HIV capsid protein, using an HIV-1 p24 […] kit (PerkinElmer, Waltham, MA, USA). Cell viability was determined as described above. The inhibitory effects on provirus reversing in J1.1 and J-Lat 6.3 cells were determined as previously described ([12], [41], [63]) with some minor modifications. Briefly, 5 × 10^4 persistently HIV-1-infected J1.1 or J-Lat 6.3 cells were cultured in either the presence or absence of the compounds at a final concentration of 1.5 µM and treated with PMA (50 ng/mL for J1.1 cells, 1 µg/mL for J-Lat 6.3 cells). Two days after treatment, the levels of viral production were determined using p24 […] for J1.1 cells and flow cytometry analysis for GFP-expressing J-Lat 6.3 cells.

The nature of data set [3]: Cell viability of TZM-bl cells (PrestoBlue). Type of data set: cell-based. Conditions: human.
Procedure: The TZM-bl cells (also referred to as JC53BL-13) expressing human CD4, CXCR4, and CCR5 carrying the F-Luc and lacZ genes downstream of the HIV-1 LTR promoter ([60]) were used to determine the inhibitory effect of the compounds on HIV-1 infection, as previously described ([11], [12], [61]). In brief, 1 × 10^4 cells were cultured in 96-well plates for 24 h and subsequently treated with compounds at the indicated concentrations. Without replacement of the culture medium, the cells were subsequently infected with the HIV-1NL4-3 wild-type or ARV-resistant HIV-1 strains at an MOI of 1 to determine the exact inhibitory effect of compounds on a single-round infection. After 48 h, the inhibitory effect of the compounds was determined using a Bright Glo luciferase assay kit (Promega) or β-Galactosidase Enzyme Assay kit (Promega). The infectivity data were presented as a percentage relative to the dimethyl sulfoxide (DMSO) control (vehicle). Cell viability was determined using the resazurin-based PrestoBlue Cell Viability Reagent (Thermo Fisher Scientific, Waltham, MA, USA) following the manufacturer’s instructions.
The subject of data set [4] is general cellular transcription/translation (R-Luc). As to the kind of experiment: Dual-reporter assay, R-Luc in bl-DTR cells. The data set is classed as cell-based. Conditions: doxycycline, 24 h. The essentials: as §1
Where [5] appears, read: A3.01 cells, absence of HIV-1 infection, mean ± SD, read-out: CC50.
[6] abbreviates: Human immunodeficiency virus 1, TZM-bl, 48 h, Table S1, WT virus, TZM-bl, fivefold serial dilutions, MOI 1, 48 h, read-out: EC50.
Setting [7] is: Human immunodeficiency virus 1, TZM-bl, Table S1, WT virus, TZM-bl, read-out: EC50.

Like-named read-outs stand apart in the source and are kept apart here.

In the case of `CC(C)[C@]12O[C@H]1[C@@H]1O[C@]13[C@]1(O[C@H]1C[C@H]1C4=C(CC[C@@]13C)C(=O)OC4)[C@@H]2O` [triptolide, reference compound], the EC50 with HIV-1NL4-3 (Human immunodeficiency virus 1, TZM-bl, 48 h, TZM-bl cells infected with HIV-1NL4-3 at MOI 1, 48 h, read-out: EC50) turned out to be 0.38 ± 0.07 nM. The “SI (CC50/EC50)” value in the data set with HIV-1NL4-3 (TZM-bl cells) is 52.63. The IC50 in data set [1] worked out at 0.82 ± 0.02 nM. Further, in data set [2] (setting [5]), the CC50 at 3 days stood at 220 ± 40 nM. For the same compound, the CC50 at 48 h in data set [3] (TZM-bl cells, absence of HIV-1 infection, mean ± SD, read-out: CC50) stood at 20 nM. Further, the “Relative R-Luc activity at IC50 of F-Luc” value in data set [4] was above 100.
For the compound `Cc1[nH]c2ccc(-c3nnc(SCC(=O)N4CCCCC4)o3)cc2c1C` [Compound 9, 2-((5-(2,3-Dimethyl-1H-indol-5-yl)-1,3,4-oxadiazol-2-yl)thio)-1-(piperidin-1-yl)ethan-1-one], the EC50 amounted to 170 ± 20 nM in the data set with HIV-1NL4-3 (Human immunodeficiency virus 1, TZM-bl, 48 h, TZM-bl cells infected with HIV-1NL4-3 at MOI 1, 48 h, F-Luc, mean ± SD, read-out: EC50) and 130 ± 20 nM in the data set on HIV-1NL4-3 (setting [6]). For the same compound, the concentration for an effect of 90% (EC90) in the data set on HIV-1NL4-3 (Human immunodeficiency virus 1, TZM-bl cells, read-out: approximate EC90) is around 1500 nM. The “SI (CC50/EC50)” value in the data set on HIV-1NL4-3 (TZM-bl cells) is reported as 371.76. Moreover, the 50% inhibitory concentration (IC50) in data set [1] amounted to 140 nM. Moreover, in data set [2], half-maximal cytotoxicity (CC50 at 3 days) was put at 56100 ± 4480 nM. For the same compound, half-maximal cytotoxicity in data set [3] (CC50 at 48 h) was put at 63200 ± 5940 nM. Moreover, the “Relative R-Luc activity at IC50 of F-Luc” value in data set [4] is above 100.
Take `Cc1[nH]c2ccc(-c3nnc(SCC(=O)N4CCCC4)o3)cc2c1C` [Compound 13, 2-((5-(2,3-Dimethyl-1H-indol-5-yl)-1,3,4-oxadiazol-2-yl)thio)-1-(pyrrolidin-1-yl)ethan-1-one]: the EC50 stood at 180 ± 50 nM with HIV-1NL4-3 (Human immunodeficiency virus 1, TZM-bl, 48 h, TZM-bl cells infected with HIV-1NL4-3 at MOI 1, 48 h, F-Luc, mean ± SD); 200 ± 20 nM in the data set with HIV-1NL4-3 (setting [6]); 240 ± 30 nM in the data set on HIV-1NL4-3 (TZM-bl cells infected with HIV-1NL4-3 at MOI 1, 48 h, F-Luc, mean ± SD, read-out: EC50). In the data set on HIV-1NL4-3 (TZM-bl cells), the “SI (CC50/EC50)” value is 196.33. For the same compound, the IC50 in data set [1] came to 300 ± 30 nM. In data set [2], the CC50 at 3 days came out at 47600 ± 1880 nM. The same compound yielded a CC50 at 48 h in data set [3] of 47100 ± 7720 nM. Also, the “Relative R-Luc activity at IC50 of F-Luc” value in data set [4] was above 100.
Regarding `C[C@@H]1CCO[C@H]2Cn3cc(C(=O)NCc4ccc(F)cc4F)c(=O)c(O)c3C(=O)N12` [DTG, dolutegravir, reference compound], the concentration giving a half-maximal response (EC50) in the data set with HIV-1NL4-3 (setting [7]) turned out to be 1 nM. For the same compound, half-maximal cytotoxicity in data set [2] (CC50 at 3 days) was put at 7670 ± 610 nM.
As for `O=C1Nc2ccc(Cl)cc2[C@@](C#CC2CC2)(C(F)(F)F)O1` [EFV, efavirenz, reference compound], the EC50 in the data set with HIV-1NL4-3 (setting [7]) was below 1 nM. In addition, the CC50 at 3 days in data set [2] (setting [5]) is 22700 ± 1650 nM.

Broadly, the EC50 is the midpoint of the concentration-response curve. Usually IC50 stands for the concentration at which inhibition is half-maximal. As a reminder, the CC50 is the concentration at which the toxic effect on the cells reaches its halfway point. A word on the EC90: it is the concentration at which the effect reaches the 90% level.

The values are drawn from publication PMC11459959, “Discovery of new acetamide derivatives of 5-indole-1,3,4-oxadiazol-2-thiol as inhibitors of HIV-1 Tat-mediated viral transcription” (Antimicrobial Agents and Chemotherapy, 2024).
